Experimental data taken from patent US20220331416A1, “COMBINED EXPRESSION OF A CHIMERIC CD3 FUSION PROTEIN AND AN ANTI-CD3-BASED BISPECIFIC T CELL ACTIVATING ELEMENT” (BIOTHEUS (SUZHOU) CO., LTD., priority 2019, published 2022).

What was measured:
[1] = test system: CAIX CAB-T co-cultured with CAIX+MDA-MB231; experiment: Dasatinib inhibition of cytokine release of CAIX CAB-T; format: cell-based; conditions: activated CAIX CAB-T, co-cultured overnight
[2] = test system: HER2 CAB-T co-cultured with SKBR3; experiment: Dasatinib inhibition of cytokine release of HER2 CAB-T; format: cell-based; conditions: activated HER2 CAB-T, co-cultured overnight
[3] = test system: HER2 CAB-T co-cultured with SKBR3; experiment: Dasatinib inhibition of killing activity of HER2 CAB-T (LDH); conditions: E:T 5:1, over 12 hours
[4] = test system: CAIX CAB-T co-cultured with CALX+MDA-MB231; conditions: E:T 5:1, over 12 hours
Experimental: Briefly, 5×10^4 effector cells (CAIX CAB-T or HER2 CAB-T) and 1×10^4 target cells (CALX+MDA-MB231 or SKBR3) were co-cultured with a gradient concentration of dasatinib (100 nM, 50 nM, 25 nM, 12.5 nM, 6.25 nM, 0 nM), Cytotoxicity of CAB-T to its target cells were determined in 2-hour intervals over a period of 12 hours [effector-to-target cell (E:T) ratio, 5:1].

SMILES: Cc1nc(Nc2ncc(C(=O)Nc3c(C)cccc3Cl)s2)cc(N2CCN(CCO)CC2)n1 [dasatinib]
- dose at which IFNγ secretion is inhibited effectively [1]: around 25 nM
- dose at which IL-2 secretion is inhibited effectively [1]: around 25 nM
- dose at which IFNγ secretion is inhibited effectively [2]: around 25 nM
- dose at which IL-2 secretion is inhibited effectively [2]: around 25 nM
- dose at which cytotoxicity to target cells is inhibited effectively [3]: around 50 nM
- dose at which cytotoxicity to target cells is inhibited effectively [4]: around 50 nM
